Measured values reported in US12195427B2, “MASP-2 inhibitors and methods of use” (priority 2018, dated 2025).

Key:
Lectin Pathway = Lectin Pathway Activation Assay in Human Serum (mannan-coated ELISA, C3c detection); assay type: biochemical; settings: 1% human serum
Method: Microtiter ELISA plate was coated with mannan from Saccharomyces cerevisiae (Sigma-Aldrich, M7504) for overnight at 4° C. in coating buffer [15 mM Na2CO3, 35 mM NaHCO3].

MASP-2 CCP2-SP = MASP-2 CCP2-SP (Homo sapiens (Human), UniProt O00187); assay: MASP-2 co-crystallization, X-ray crystallography and structure analysis (H-bonds, van der Waals contacts); design: van der Waals contact distance, MASP-2 HIS 483 atom CD2 / van der Waals contact distance, MASP-2 HIS 483 atom NE2 / van der Waals contact distance, SER 654 C to compound atom / van der Waals contact distance, SER 654 O to compound atom / van der Waals contact distance, TRP 655 C to compound atom / van der Waals contact distance, MASP-2 GLY 528 atom CA / van der Waals contact distance TRP 655 atom CZ3 / van der Waals contact distance TRP 655 atom N / van der Waals contact distance TRP 655 atom CE3 / van der Waals contact distance GLY 656 atom C / van der Waals contact distance GLY 656 atom CA / van der Waals contact distance GLY 656 atom O / van der Waals contact distance, MASP-2 TYR 607 atom CD1 / van der Waals contact distance, MASP-2 PRO 606 atom O / d(C3,CA1) / d(CA1,N1)2 / d(H4,O1) / d(H4,O2) / d(O1,O2) / d(CA1,O2) / d(CA6,O1) / d(CA6,O2) / d(CA1,C5) / d(O2,H3) / d(N2,C2) / d(CA5,N2) / d(N2,C4) / d(N2,C6) / d(N2,CA3) / d(N2,O3) / d(O4,H2): unit not given beside the values; settings: for H-bond distance to MASP-2 GLY 656 atom N: GLY 656 N; for H-bond distance to MASP-2 GLY 656 atom O: GLY 656 O; for H-bond distance to MASP-2 SER 654 atom O: SER 654 O; for van der Waals contact distance, MASP-2 amino acid atom to compound atom: ARG 630; for Ligand-pharmacophore element distance, pharmacophore element C2 / Ligand-pharmacophore element distance, pharmacophore element C3 / Ligand-pharmacophore element distance, pharmacophore element C4 / Ligand-pharmacophore element distance, pharmacophore element C5 / Ligand-pharmacophore element distance, pharmacophore element C6 / Ligand-pharmacophore element distance, pharmacophore element C7 / Ligand-pharmacophore element distance, pharmacophore element CA1 / Ligand-pharmacophore element distance, pharmacophore element CA2 / Ligand-pharmacophore element distance, pharmacophore element CA3 / Ligand-pharmacophore element distance, pharmacophore element CA4 / Ligand-pharmacophore element distance, pharmacophore element CA5 / Ligand-pharmacophore element distance, pharmacophore element CA6: Table A4-1; for d(N2,CA2) / d(O2,H3) / d(O2,N2): Table A5-2 pharmacophore distance, S3/S4 region; for a(O1, O2, H3) / a(O1, O2, N2) / a(O2, N2, CA2): Table A6-2 pharmacophore angle;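 as to Ligand-pharmacophore element distance, pharmacophore element C2: distance from averaged pharmacophore element to bound ligand; missing value means element absent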;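 as to Ligand-pharmacophore element distance, pharmacophore element C3: distance from averaged pharmacophore element to bound ligand; missing value means element absent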;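 as to Ligand-pharmacophore element distance, pharmacophore element C4: distance from averaged pharmacophore element to bound ligand; missing value means element absent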;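 as to Ligand-pharmacophore element distance, pharmacophore element C5: distance from averaged pharmacophore element to bound ligand; missing value means element absent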
Chain of MASP-2 CCP2-SP (O00187 445-686): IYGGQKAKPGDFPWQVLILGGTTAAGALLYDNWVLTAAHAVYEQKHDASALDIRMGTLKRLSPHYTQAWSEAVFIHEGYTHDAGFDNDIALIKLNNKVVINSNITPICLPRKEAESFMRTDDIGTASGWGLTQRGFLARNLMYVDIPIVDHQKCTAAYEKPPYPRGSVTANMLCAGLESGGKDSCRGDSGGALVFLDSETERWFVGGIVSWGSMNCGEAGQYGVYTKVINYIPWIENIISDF
Chain of MASP-2 CCP2-SP (O00187 364-432 partner): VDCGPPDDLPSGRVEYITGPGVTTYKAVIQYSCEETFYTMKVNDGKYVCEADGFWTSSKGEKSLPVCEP
Outline: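 First, CCP2-SP constructs with or without a 6His tag are produced in E. coli. Crystals are then soaked once or twice with inhibitor, cryoprotected in 20% glycerol or frozen directly, and diffracted at synchrotron beamlines. Phasing uses molecular replacement with parts of 1Q3X.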

[1] = Table A5-1 pharmacophore: distance between elements, S2/S1 region
[2] = Table A7-1, between pharmacophore elements of the bound compound
[3] = Table A7-2, between pharmacophore elements of the bound compound

Cc1nc(N)ccc1CNC(=O)[C@H](C)NC(=O)[C@H]1C[C@H](Cc2ccc(-c3ccccc3)cc2)CN1 [compound 1351, (2R,4S)-4-([1,1′-Biphenyl]-4-ylmethyl)-N—((S)-1-(((6-amino-2-methylpyridin-3-yl)methyl)amino)-1-oxopropan-2-yl)pyrrolidine-2-carboxamide]
IC50 (Lectin Pathway): < 50 nM
H-bond distance to MASP-2 ASP 627 atom OD2 (MASP-2 CCP2-SP; Table A1 (H-Bonds), ASP 627 OD2): 3.22
H-bond distance to MASP-2 GLY 656 atom N (MASP-2 CCP2-SP; Table A1 (H-Bonds)): 3.25
H-bond distance to MASP-2 GLY 656 atom O (MASP-2 CCP2-SP; Table A1 (H-Bonds)): 2.76
H-bond distance to MASP-2 SER 654 atom O (MASP-2 CCP2-SP; Table A1 (H-Bonds)): 2.98
H-bond distance to MASP-2 SER 657 atom O (MASP-2 CCP2-SP; Table A1 (H-Bonds), SER 657 O): 2.8
van der Waals contact distance, MASP-2 HIS 483 atom CD2 (MASP-2 CCP2-SP; Table A2-1): 3.66
van der Waals contact distance, MASP-2 HIS 483 atom NE2 (MASP-2 CCP2-SP; Table A2-1): 3.9
van der Waals contact distance, MASP-2 ALA 527 atom CA (MASP-2 CCP2-SP; Table A2-2): 3.71
van der Waals contact distance, MASP-2 PHE 529 atom CE1 (MASP-2 CCP2-SP; Table A2-3): 3.8
van der Waals contact distance, MASP-2 amino acid atom to compound atom (MASP-2 CCP2-SP; Table A2-9, AA atoms CG, CZ): 3.81
van der Waals contact distance, VAL 653 CG1 to compound atom (MASP-2 CCP2-SP; Table A2-11): 3.3
van der Waals contact distance, TRP 655 CA to compound atom (MASP-2 CCP2-SP; Table A2-12): 3.34
Ligand-pharmacophore element distance, pharmacophore element C2 (MASP-2 CCP2-SP): 0
Ligand-pharmacophore element distance, pharmacophore element C3 (MASP-2 CCP2-SP): 0.12
Ligand-pharmacophore element distance, pharmacophore element C4 (MASP-2 CCP2-SP): 0
Ligand-pharmacophore element distance, pharmacophore element C5 (MASP-2 CCP2-SP): 0
Ligand-pharmacophore element distance, pharmacophore element C6 (MASP-2 CCP2-SP): 0
Ligand-pharmacophore element distance, pharmacophore element C7 (MASP-2 CCP2-SP): 0
Ligand-pharmacophore element distance, pharmacophore element CA1 (MASP-2 CCP2-SP): 0.57
Ligand-pharmacophore element distance, pharmacophore element CA2 (MASP-2 CCP2-SP): 0.8
Ligand-pharmacophore element distance, pharmacophore element CA3 (MASP-2 CCP2-SP): 0
Ligand-pharmacophore element distance, pharmacophore element CA4 (MASP-2 CCP2-SP): 3.3
Ligand-pharmacophore element distance, pharmacophore element CA5 (MASP-2 CCP2-SP): 0
Ligand-pharmacophore element distance, pharmacophore element CA6 (MASP-2 CCP2-SP): 0
d(C3,CA1) (MASP-2 CCP2-SP; [1]): 2.85
d(CA1,N1)2 (MASP-2 CCP2-SP; [1]): 1.38
d(CA1,O1) (MASP-2 CCP2-SP; [1]): 4.47
d(CA1,O2) (MASP-2 CCP2-SP; [1]): 3.79
d(H4,O1) (MASP-2 CCP2-SP; [1]): 4.47
d(H4,O2) (MASP-2 CCP2-SP; [1]): 3.70
d(O1,O2) (MASP-2 CCP2-SP; [1]): 3.38
d(N2,CA2) (MASP-2 CCP2-SP): 6.12
d(O2,H3) (MASP-2 CCP2-SP): 4.26
d(O2,N2) (MASP-2 CCP2-SP): 2.76
a(C3, CA1, O1) (MASP-2 CCP2-SP; Table A6-1 pharmacophore angle): 149.86
a(CA1, O1, O2) (MASP-2 CCP2-SP; Table A6-1 pharmacophore angle): 103.11
a(O1, O2, H4) (MASP-2 CCP2-SP; Table A6-1 pharmacophore angle): 132.32
a(N1, CA1, O1) b) (MASP-2 CCP2-SP; Table A6-1 pharmacophore angle, Methyl-amino-pyridine compounds): 173.60
a(O1, O2, H3) (MASP-2 CCP2-SP): 148.60
a(O1, O2, N2) (MASP-2 CCP2-SP): 141.59
a(O2, N2, CA2) (MASP-2 CCP2-SP): 158.04
Pharmacophore torsion angle a(C3, CA1, O1, H4) (MASP-2 CCP2-SP; [2]): 26.55
Pharmacophore torsion angle a(H4, O1, O2, H3) (MASP-2 CCP2-SP; [2]): 51.88
Pharmacophore torsion angle a(H4, O1, O2, N2) (MASP-2 CCP2-SP; [2]): 138.69
Pharmacophore torsion angle a(N1, CA1, O1, H4) (MASP-2 CCP2-SP; [2]): −0.13
Pharmacophore torsion angle a(O1, H4, O2, CA1) (MASP-2 CCP2-SP; [2]): −83.97
Pharmacophore torsion angle a(O1, O2, N2, CA2) (MASP-2 CCP2-SP; [3]): 121.52
Pharmacophore torsion angle a(O1, O2, N2, CA4) (MASP-2 CCP2-SP; [3]): 119.61

C[C@H](NC(=O)[C@H]1C[C@H](Cc2ccccc2)CN1)C(=O)NCc1cnc2[nH]cc(Cl)c2c1 [compound 1334, (2R,4S)-4-Benzyl-N—((S)-1-(((3-chloro-1H-pyrrolo[2,3-b]pyridin-5-yl)methyl)amino)-1-oxopropan-2-yl)pyrrolidine-2-carboxamide]
IC50 (Lectin Pathway): 50 to 500 nM
H-bond distance to MASP-2 GLY 656 atom N (MASP-2 CCP2-SP; Table A1 (H-Bonds)): 3.16
H-bond distance to MASP-2 GLY 656 atom O (MASP-2 CCP2-SP; Table A1 (H-Bonds)): 2.83
H-bond distance to MASP-2 SER 654 atom O (MASP-2 CCP2-SP; Table A1 (H-Bonds)): 2.81
van der Waals contact distance, MASP-2 HIS 483 atom CD2 (MASP-2 CCP2-SP; Table A2-1): 3.66
van der Waals contact distance, MASP-2 HIS 483 atom CE1 (MASP-2 CCP2-SP; Table A2-1): 3.84
van der Waals contact distance, MASP-2 PHE 529 atom CD2 (MASP-2 CCP2-SP; Table A2-3): 3.73
van der Waals contact distance, MASP-2 TYR 607 atom CD1 (MASP-2 CCP2-SP; Table A2-4): 3.81
van der Waals contact distance, MASP-2 amino acid atom to compound atom (MASP-2 CCP2-SP; Table A2-9, AA atoms CG, CZ): 3.89
van der Waals contact distance, MASP-2 amino acid atom to compound atom (MASP-2 CCP2-SP; Table A2-9 second part, AA atoms N, NE, NH1): 3.59
van der Waals contact distance TRP 655 atom CE3 (MASP-2 CCP2-SP; Table A2-13, MASP-2 TRP 655 CE3, compound atom in line below): 3.66
van der Waals contact distance TRP 655 atom CZ3 (MASP-2 CCP2-SP; Table A2-13, MASP-2 TRP 655 CZ3): 3.67
van der Waals contact distance TRP 655 atom N (MASP-2 CCP2-SP; Table A2-13, MASP-2 TRP 655 N): 3.68
Ligand-pharmacophore element distance, pharmacophore element C2 (MASP-2 CCP2-SP): 0
Ligand-pharmacophore element distance, pharmacophore element C3 (MASP-2 CCP2-SP): 0
Ligand-pharmacophore element distance, pharmacophore element C4 (MASP-2 CCP2-SP): 0
Ligand-pharmacophore element distance, pharmacophore element C5 (MASP-2 CCP2-SP): 0.34
Ligand-pharmacophore element distance, pharmacophore element C6 (MASP-2 CCP2-SP): 0
Ligand-pharmacophore element distance, pharmacophore element C7 (MASP-2 CCP2-SP): 0
Ligand-pharmacophore element distance, pharmacophore element CA1 (MASP-2 CCP2-SP): 1.04
Ligand-pharmacophore element distance, pharmacophore element CA2 (MASP-2 CCP2-SP): 0.7
Ligand-pharmacophore element distance, pharmacophore element CA3 (MASP-2 CCP2-SP): 0
Ligand-pharmacophore element distance, pharmacophore element CA4 (MASP-2 CCP2-SP): 0
Ligand-pharmacophore element distance, pharmacophore element CA5 (MASP-2 CCP2-SP): 0
Ligand-pharmacophore element distance, pharmacophore element CA6 (MASP-2 CCP2-SP): 0
d(CA1,C5) (MASP-2 CCP2-SP; [1]): 3.47
d(CA1,O1) (MASP-2 CCP2-SP; [1]): 5.33
d(CA1,O2) (MASP-2 CCP2-SP; [1]): 4.84
d(CA1,O4) (MASP-2 CCP2-SP; [1]): 1.75
d(H4,O1) (MASP-2 CCP2-SP; [1]): 3.14
d(H4,O2) (MASP-2 CCP2-SP; [1]): 3.74
d(O1,O2) (MASP-2 CCP2-SP; [1]): 3.24
d(N2,CA2) (MASP-2 CCP2-SP): 6.09
d(O2,H3) (MASP-2 CCP2-SP): 2.99
d(O2,N2) (MASP-2 CCP2-SP): 2.77
a(C5, CA1, O1) (MASP-2 CCP2-SP; Table A6-1 pharmacophore angle): 150.49
a(CA1, O1, O2) (MASP-2 CCP2-SP; Table A6-1 pharmacophore angle): 100.10
a(O1, CA1, O4) (MASP-2 CCP2-SP; Table A6-1 pharmacophore angle): 68.25
a(O1, O2, H4) (MASP-2 CCP2-SP; Table A6-1 pharmacophore angle): 124.74
a(O1, O2, H3) (MASP-2 CCP2-SP): 136.63
a(O1, O2, N2) (MASP-2 CCP2-SP): 143.82
a(O2, N2, CA2) (MASP-2 CCP2-SP): 155.99
Pharmacophore torsion angle a(C5, CA1, O1, H4) (MASP-2 CCP2-SP; [2]): 2.51
Pharmacophore torsion angle a(H4, O1, O2, H3) (MASP-2 CCP2-SP; [2]): 110.57
Pharmacophore torsion angle a(H4, O1, O2, N2) (MASP-2 CCP2-SP; [2]): −172.73
Pharmacophore torsion angle a(O1, H4, O2, CA1) (MASP-2 CCP2-SP; [2]): −93.67
Pharmacophore torsion angle a(O1, O2, N2, CA2) (MASP-2 CCP2-SP; [3]): 133.84
